Experiments:
[1] = target: T1, β(1,4)-Gal-T1(Y289L) (Bos taurus, UniProt P08037, I205M/L206V/P187L/V158I/Y289L); test: Glycosyltransfer of UDP-galactosamine derivatives to trimmed trastuzumab with Gal-T1(Y289L) expressed in E. coli, mass spectral analysis; assay type: biochemical, bovine; details: trimmed trastuzumab 10 mg/mL; UDP derivative 7 mM; enzyme 2 mg/mL; pH 8.0, 30° C. overnight; reduced sample
T1 construct: made in house; host or cells: E. coli
T1 sequence (P08037 1-402 V158I/P187L/I205M/L206V/Y289L): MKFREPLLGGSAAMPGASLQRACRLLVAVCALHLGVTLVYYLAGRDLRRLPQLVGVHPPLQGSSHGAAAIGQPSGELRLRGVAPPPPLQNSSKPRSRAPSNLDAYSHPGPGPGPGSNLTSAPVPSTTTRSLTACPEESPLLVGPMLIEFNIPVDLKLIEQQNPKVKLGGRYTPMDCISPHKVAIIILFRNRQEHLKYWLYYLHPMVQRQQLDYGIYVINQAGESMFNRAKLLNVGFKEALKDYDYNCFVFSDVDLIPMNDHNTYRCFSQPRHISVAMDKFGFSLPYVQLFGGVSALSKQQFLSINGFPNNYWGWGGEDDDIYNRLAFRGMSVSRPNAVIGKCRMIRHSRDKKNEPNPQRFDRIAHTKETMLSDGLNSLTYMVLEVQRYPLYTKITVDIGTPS
Experimental: General Protocol for Glycosyltransfer of Galactose Derivative UDP-GalNAz 21-24 with Gal-T1(Y289L) (Expressed in E. coli).
Enzymatic introduction of UDP-Gal derivatives 21-24 onto deglycosylated trastuzumab was effected with a mutant of bovine β(1,4)-galactosyltransferase [β(1,4)-Gal-T1(Y289L)] (expressed in E. coli). The deglycosylated trastuzumab (10 mg/mL) was incubated with the appropriate UDP-galactose derivative (0.4 mM) and β(1,4)-Gal-T1(Y289L) (1 mg/mL) in 10 mM MnCl2 and 25 mM Tris-HCl pH 8.0 for 16 hours at 30° C.
Next, the functionalized trastuzumab was incubated with protein A agarose (40 μL per mg IgG) for 2 hours at 4° C. The protein A agarose was washed three times with PBS and the IgG was eluted with 100 mM glycine-HCl pH 2.7. The eluted IgG was neutralized with 1 M Tris-HCl pH 8.0 and concentrated and washed with PBS using an Amicon Ultra-0.5, Ultracel-10 Membrane (Millipore) to a concentration of 15-20 mg/mL.
Trimmed trastuzumab (10 mg/mL, 3.3 nmol), obtained by Endo S treatment of trastuzumab, was incubated with UDP-galactosamine variant 21 (2.5 mM) and β(1,4)-Gal-T1(Y289L) (0.68 mg/mL, 45 μL) in 10 mM MnCl2 and 25 mM Tris-HCl pH 8.0 at 30° C. overnight.
Trimmed trastuzumab (10 mg/mL, 1.3 nmol), obtained by Endo S treatment of trastuzumab, was incubated with UDP-galactosamine variant 22 (4 mM) and β(1,4)-Gal-T1(Y289L) (1.4 mg/mL, 10 μL) in 10 mM MnCl2 and 25 mM Tris-HCl pH 8.0 at 30° C. overnight. Mass spectral analysis of the reduced sample indicated the formation of the product (49750.9 Da, approximately 80% of total heavy chain), resulting from galactosamide furan-2-carboxyl acid transfer to core GlcNAc(Fuc) substituted trastuzumab heavy chain as shown in FIG. 9.
Trimmed trastuzumab (10 mg/mL, 6.6 nmol), obtained by Endo S treatment of trastuzumab, was incubated with the 4-azido-3,5-difluorobenzoyl derivative of UDP-galactosamine (23, 7 mM) and β(1,4)-Gal-T1(Y289L) (2 mg/mL) in 10 mM MnCl2 and 25 mM Tris-HCl pH 8.0 at 30° C. overnight. Mass spectral analysis of the reduced sample indicated the formation of a one major product (49813 Da, approximately 90% of total heavy chain), resulting from transfer of 23 to core GlcNAc(Fuc)-substituted trastuzumab heavy chain.
Trimmed trastuzumab (10 mg/mL, 1.3 nmol), obtained by Endo S treatment of trastuzumab, was incubated with UDP-galactosamine variant 24 (4 mM) and (3(1,4)-Gal-T1(Y289L) (1.4 mg/mL, 10 μL) in 10 mM MnCl2 and 25 mM Tris-HCl pH 8.0 at 30° C. overnight.

[2] = target: T2, Gal-T1(Y289L) (Bos taurus, UniProt P08037, I205M/L206V/P187L/V158I/Y289L); test: Glycosyltransfer to trimmed trastuzumab with Gal-T1(Y289L) expressed in CHO; assay type: biochemical, bovine; details: trimmed trastuzumab 10 mg/mL; UDP derivative 5 mM; enzyme 0.5 mg/mL; pH 8.0, 30° C. overnight
T2 construct: host or cells: CHO K1
T2 sequence (P08037 74-402 V158I/P187L/I205M/L206V/Y289L): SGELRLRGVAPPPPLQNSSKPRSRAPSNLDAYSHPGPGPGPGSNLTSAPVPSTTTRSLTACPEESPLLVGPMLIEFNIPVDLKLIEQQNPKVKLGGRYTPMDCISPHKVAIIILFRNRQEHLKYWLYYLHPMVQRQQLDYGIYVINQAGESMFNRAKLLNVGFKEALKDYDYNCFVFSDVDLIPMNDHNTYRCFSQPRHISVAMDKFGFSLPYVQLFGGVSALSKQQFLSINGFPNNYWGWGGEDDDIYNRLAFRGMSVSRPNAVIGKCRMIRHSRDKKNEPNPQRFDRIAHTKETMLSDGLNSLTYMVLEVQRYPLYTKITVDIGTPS
Description: A set of Gal-T 1 mutants encoding residues 74-402 of bovine Gal-T 1 were transiently expressed in CHO K1 cells by Evitria (Zurich, Switzerland) which include the Gal-T1 single mutants Y289L (represented by SEQ ID NO: 26), Y289F (represented by SEQ ID NO: 27), Y289M (represented by SEQ ID NO: 28), Y289V (represented by SEQ ID NO: 29), Y289A (represented by SEQ ID NO: 30), and Y289G (represented by SEQ ID NO: 31), and the Gal-T1 double mutants Y289L,C342T (represented by SEQ ID NO: 32), and Y289M,C342T (represented by SEQ ID NO: 33). The mutants were purified using a cation exchange column (Source 15S HR16/10 column, GE Healthcare) as described above. Purified proteins were analyzed by SDS-PAGE.
Trimmed trastuzumab (10 mg/mL, […] obtained by Endo S treatment of trastuzumab, was incubated with the 4-azido-3,5-difluorobenzoyl derivative of UDP-galactosamine (23, 5 mM) and one of the Gal-T1 single mutants Y289L, Y289M, Y289A or Y289G (expressed in CHO as described above) (0.5 mg/mL) in 10 mM MnCl2 and 25 mM Tris-HCl pH 8.0 at 30° C. overnight. Mass spectral analysis of the reduced sample indicated a partial conversion of the core GlcNac(Fuc)-substituted trastuzumab heavy chain (49504 Da) into product 30 (49818 to 49825 Da, 20 to 50% of total heavy chain depending on the Gal-T1 mutant used), resulting from transfer of 23 to core GlcNAc(Fuc)-substituted trastuzumab heavy chain. […]

With `[N-]=[N+]=Nc1c(F)cc(C(=O)N[C@H]2[C@@H](OP(=O)(O)OP(=O)(O)OC[C@H]3O[C@@H](n4ccc(=O)[nH]c4=O)[C@H](O)[C@@H]3O)O[C@H](CO)[C@H](O)[C@@H]2O)cc1F` [Compound 23, 4-azido-3,5-difluorobenzoyl Derivative of UDP-GalNH2] the “product, % of total heavy chain” value [1] was “approximately 90%” and the observed conversion [2] was “approximately 30%”.

From US20170009266A1, “PROCESS FOR THE ATTACHMENT OF A GALNAC MOIETY COMPRISING A (HETERO)ARYL GROUP TO A GLCNAC MOIETY, AND PRODUCT OBTAINED THEREBY” (SYNAFFIX B.V., priority 2014, published 2017)
